Source: PubChem BioAssay (NCI)
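Protocol summary: plate cells (96-well), add compound at 5 concentrations, incubate 48 h, interpolate endpoints linearly. TGI marks complete inhibition of growth.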

How the values were obtained:
Experiment in all cases: DTP human tumour cell line panel, 48 h
[1] = system: A498 renal
[2] = system: A549 NSCLC
[3] = system: ACHN renal
[4] = system: CAKI-1 renal
[5] = system: CCRF-CEM leukemia
[6] = system: COLO 205 colon
[7] = system: DLD-1 colon
[8] = system: DMS 114 small cell lung
[9] = system: DMS 273 small cell lung
[10] = system: HCC-2998 colon
[11] = system: HCT-116 colon
[12] = system: HCT-15 colon
[13] = system: HL-60(TB) leukemia
[14] = system: HOP-18 NSCLC
[15] = system: HOP-62 NSCLC
[16] = system: HOP-92 NSCLC
[17] = system: HT29 colon
[18] = system: KM12 colon
[19] = system: KM20L2 colon
[20] = system: LOX IMVI melanoma
[21] = system: LXFL 529 NSCLC
[22] = system: M14 melanoma
[23] = system: MALME-3M melanoma
[24] = system: MOLT-4 leukemia
[25] = system: NCI-H226 lung
[26] = system: NCI-H23 lung
[27] = system: NCI-H460 lung
[28] = system: NCI-H522 lung
[29] = system: OVCAR-4 ovarian
[30] = system: OVCAR-5 ovarian
[31] = system: RPMI-8226 leukemia
[32] = system: RXF 393 renal
[33] = system: RXF-631 renal
[34] = system: SF-268 CNS
[35] = system: SF-295 CNS
[36] = system: SK-MEL-2 melanoma
[37] = system: SK-MEL-28 melanoma
[38] = system: SK-MEL-5 melanoma
[39] = system: SK-OV-3 ovarian
[40] = system: SN12C renal
[41] = system: SNB-19 CNS
[42] = system: SNB-75 CNS
[43] = system: SNB-78 CNS
[44] = system: SR leukemia
[45] = system: SW-620 colon
[46] = system: TK-10 renal
[47] = system: U251 CNS
[48] = system: UACC-257 melanoma
[49] = system: XF 498 CNS

Measured: TGI

O=C1c2cccc(O)c2C(=O)c2c(O)cc(CO)cc21
83.6 µM: [23]
30.7 µM: [38]
64.6 µM: [28]
> 100 µM: all other assays above
